From patent publication US8021851B2, “Thr51 phosphorylated HP 1β protein for the assessment of DNA damage” (Cambridge Enterprise Limited, priority 2009, dated 2011)

What was measured:
HP1βT51P levels = assay: anti-HP1βT51P detection in cell extracts; type: cell-based
EGFP-HP1β = assay: FRAP dynamics of EGFP-HP1β in living cells; type: cell-based, mouse; conditions: preexposure to 75 μM TBB (FIG. 20)
Protocol: MEFs were seeded in 2-well Lab-Tek chambers (Nunc) after transfection with the EGFP-HP1β construct. Before imaging, growth medium was replaced with phenol-red free L15 imaging medium. Live cell imaging and photobleaching experiments were performed using a 40× 1.2 NA water immersion lens on a Zeiss LSM 510 Meta confocal microscope (using a heating chamber to maintain the cells at […]) with the 488 nm line of an Argon laser operating at 6.1 A.
FRAP analysis was performed by a method previously established in our lab 27. For low-bleach FRAP (see FIG. S1), selected regions of HC and EC were simultaneously bleached in a diffraction-limited spot with a pulse of 2 iterations at 100% of the […] Ar laser. Post-bleach images were acquired at a lower frequency of an image every 400 msec. Image bleach was corrected separately for EC and HC regions using a nearby unbleached cell. For high-bleach FRAP experiments, photobleaching was with 35 iterations at the same laser output, and images were collected every 290 msec. The normalized curves were plotted in GraphPad Prism, and recovery curves were fitted to a single order exponential equation Y=Ymax*(1−exp(−K*X)) to yield a recovery constant K; shown to be different among groups by the sum of squares f-test at p<0.05.

γH2AX = γH2AX foci formation / staining in MEFs after IR; type: cell-based, mouse
Protocol: Cell staining and immunofluorescence analyses were carried out as described previously^2. Briefly, transfected and untransfected cells were grown on coverslips and subjected to different treatments as indicated in the text prior to fixation. Cells were fixed using 4% formaldehyde for 10-15 min, followed by solubilisation and blocking with 3% BSA in 1×PBS, 0.05% Tween-20, 0.05% Triton. Imaging was performed on a Zeiss LSM510 Meta confocal microscope, using a 40× objective with fixed optical slice, laser power and detector/amplifier settings for all samples across each individual experiment to allow comparison. Quantitative analysis for HP1βT51P and γH2AX staining was performed using mean per-nucleus intensity to avoid any discrepancy in the definition or counting of foci. This was performed on identically stained and imaged samples by estimation of raw pixel intensity values for a defined number of cells, specified for each experiment, through the Zeiss LSM software, and comparison of the different groups by one-way ANOVA and Dunnet's post test. […] The plates were imaged and analyzed using a Cellomics high content screening microscope, using a 40× non-immersion objective. […] 500 cells were analysed per well, and standard errors calculated from an average of the means of 8 wells.

SMILES	HP1βT51P levels detected by anti-HP1βT51P in cell extracts (HP1βT51P levels; TBB at 75 μM for 6 hrs, with and without etoposide)	changes in FRAP dynamics of EGFP-HP1β triggered by DNA damage (EGFP-HP1β)	γH2AX foci formation (γH2AX; MEFs pre-exposed to 75 μM TBB, 5 min after 3 Gy IR)	pixel intensity of γH2AX staining after damage (γH2AX; TBB preexposure, n=20 per sample, p<0.01)	HP1βT51P species detected by anti-HP1βT51P in cell extracts (HP1βT51P levels; etoposide treatment)
Brc1c(Br)c(Br)c2[nH]cnc2c1Br [TBB, 4,5,6,7-tetrabromo-benzimidazole]	diminishes both the background detection and etoposide-induced enhancement of HP1βT51P levels	suppresses in living cells the changes in FRAP dynamics	suppresses γH2AX foci formation	reduced in a dose-dependent manner	–
COc1cc([C@@H]2c3cc4c(cc3[C@@H](O[C@@H]3O[C@@H]5CO[C@@H](C)O[C@H]5[C@H](O)[C@H]3O)[C@H]3COC(=O)[C@H]23)OCO4)cc(OC)c1O [etoposide]	–	–	–	–	enhanced in a dose-dependent manner
